Test results from patent US11918589B2, “Medicament for treatment of multiple sclerosis” (NIPPON CHEMIPHAR CO., LTD., priority 2016, dated 2024).

Key:
EAE model rats [1] = assay: Preventive repetitive oral administration to EAE model rats, pain threshold (von Frey, up-down method), symptoms (EAE score), weight; format: in vivo, rat; conditions: orally twice a day 10 mg/kg over 22 days from Day 0, von Frey 50% pain threshold, FIG. 3
Procedure: (§1) EAE model rats were prepared by the same method as that of Example 2. […] For symptom observation, behaviors of the animals allowed to freely act were scored in accordance with the criteria shown in Table 111. The pain threshold was measured after the animals were put into a cage for measurement of which floor is made of a wire gauze, and acclimatized in the environment for 20 minutes or longer. The measurement of the pain threshold was performed according to the method of Chaplan et al. using 7 of von Frey filaments giving different stimulation intensities, and the 50% pain threshold was calculated by the up-down method of Dixon.

EAE model rats [2] = assay: Therapeutic repetitive oral administration to EAE model rats, pain threshold; format: in vivo, rat; conditions: orally twice a day 10 mg/kg over 21 days from Day 10 (average EAE score 2 or larger), FIG. 4
Procedure: as §1
EAE model rats were prepared by the same method as that of Example 2.

EAE model rats [3] = assay: Preventive continuous administration into the subarachnoid cavity of EAE model rats, pain threshold; format: in vivo, rat; conditions: preventive continuous administration into the subarachnoid cavity 10 nmol/5 μL/hr for about 14 days, FIG. 5
Procedure: A polystyrene catheter having an external diameter of 0.30 mm was detained in the subarachnoid cavity in each of 10 weeks old LEW/CrlCrlj female rats. After about one week from the detainment of the catheter for administration in the subarachnoid cavity, EAE model rats were prepared by the same method as that of Example 2.

EAE model animals = conditions: reported in the literature; cited from earlier work

O=C1CC(=O)N(c2ccc(NC(=O)c3ccccc3I)cc2)c2ccc3ccccc3c2N1 [compound A, 5-[4-(2-iodobenzoyl)aminophenyl]-1H-naphtho[1,2-b][1,4]diazepine-2,4(3H,5H)-dione]
influence on the pain threshold (mechanical allodynia induced by EAE) (EAE model rats [1]): continuously suppressed mechanical allodynia induced by EAE | influence on the pain threshold (mechanical allodynia induced by EAE) (EAE model rats [2]): suppressed mechanical allodynia induced by EAE

O=C1CC(=O)N(c2cccc(-c3nnn[nH]3)c2)c2ccc3ccccc3c2N1.[Na] [compound B, 5-[3-(1H-tetrazol-5-yl)phenyl]-1H-naphtho[1,2-b][1,4]diazepine-2,4(3H,5H)-dione sodium salt]
influence on the pain threshold (mechanical allodynia induced by EAE) (EAE model rats [3]): suppressed mechanical allodynia induced by EAE

CN1CC[C@]23c4c5ccc(O)c4O[C@H]2[C@@H](O)C=C[C@H]3[C@H]1C5 [morphine]
analgesic action in allodynia observed in the EAE model (EAE model animals): markedly decreases
